The numbers were not newly measured in patent publication US20170304164A1, “COMPOSITIONS, APPARATUS AND METHODS FOR MONITORING AND IMPROVING ORAL HEALTH” (Berkeley NOX Limited, priority 2016, published 2017), which cites them from elsewhere.

One data set concerns Desulfovibrio spp. To be noted: 0.2 mM nitrate.
A further data set relates to Streptococcus mutans. To be noted: 0.2 mM nitrite, acidity levels below pH 7.
The test system of another data set is Fusobacterium nucleatum. Particulars: under acidic conditions.
The next data set deals with Eikenella corrodens. To be noted: under acidic conditions.
Another data set concerns Porphyromonas gingivalis. Particulars: under acidic conditions.

As to `O=[N+]([O-])O` [nitrate], the growth entry with Desulfovibrio spp. is reported as “growth is inhibited”.
Turning to `O=NO` [nitrite], the effect on bacteria result in the data set with Streptococcus mutans was “effective complete killing”. The growth entry in the data set with Fusobacterium nucleatum, in the data set on Eikenella corrodens and in the data set on Porphyromonas gingivalis was “inhibited the growth” in each case.
